Results: patent US8466107B2, “Fibrin-binding peptides and conjugates thereof” (Bracco Imaging SpA, priority 2006, dated 2013)
Bridge positions count the residues as written; N and C are the ends. Square brackets hold non-standard residues; d marks the D form. Peptide text beside a SMILES is read from it. * marks the point of attachment. αGalNAc = CC(=O)N[C@@H]1[C@@H](O)[C@@H](O)[C@@H](CO)O[C@@H]1*; 5FAM = O=C1OC2(c3ccc(O)cc3Oc3cc(O)ccc32)c2ccc(C(=O)*)cc21; Phe(4-F) = N[C@@H](Cc1ccc(F)cc1)C(=O)O; Cha = N[C@@H](CC1CCCCC1)C(=O)O

target: DDE (fibrin-derived polypeptide) (Homo sapiens, UniProt P02671+P02675+P02679); assay: Direct binding fluorescence polarization (FP) assay using 5-carboxyfluorescein labeled peptides; settings: 20 nM CF5-labeled peptide, serial dilutions of DDE, anisotropy read at 485 nm; read-out: KD (μM) Direct Binding (n = 2)
Sequence (P02671 124-216): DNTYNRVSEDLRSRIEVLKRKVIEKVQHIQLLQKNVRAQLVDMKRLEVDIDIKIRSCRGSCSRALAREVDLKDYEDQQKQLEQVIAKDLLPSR
Sequence (P02675 164-491): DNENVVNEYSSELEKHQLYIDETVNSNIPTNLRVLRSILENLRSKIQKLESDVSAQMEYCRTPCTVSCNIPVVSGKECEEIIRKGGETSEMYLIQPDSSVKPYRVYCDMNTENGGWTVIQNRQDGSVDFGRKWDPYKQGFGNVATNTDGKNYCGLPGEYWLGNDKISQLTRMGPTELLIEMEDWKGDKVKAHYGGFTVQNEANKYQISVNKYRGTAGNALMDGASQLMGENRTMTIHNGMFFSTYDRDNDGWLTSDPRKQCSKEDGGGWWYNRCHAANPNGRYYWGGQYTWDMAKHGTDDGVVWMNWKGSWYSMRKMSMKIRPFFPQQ
Sequence (P02679 114-432): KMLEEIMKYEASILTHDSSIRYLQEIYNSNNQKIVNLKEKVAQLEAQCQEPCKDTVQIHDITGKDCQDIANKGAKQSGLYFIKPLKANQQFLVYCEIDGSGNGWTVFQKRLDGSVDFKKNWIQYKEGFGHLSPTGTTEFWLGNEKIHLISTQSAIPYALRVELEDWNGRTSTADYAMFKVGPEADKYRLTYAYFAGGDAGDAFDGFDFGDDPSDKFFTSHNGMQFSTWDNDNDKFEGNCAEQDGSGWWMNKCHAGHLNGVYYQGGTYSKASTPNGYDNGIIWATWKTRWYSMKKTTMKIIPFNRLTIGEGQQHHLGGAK
Sequence (P02671 36-97): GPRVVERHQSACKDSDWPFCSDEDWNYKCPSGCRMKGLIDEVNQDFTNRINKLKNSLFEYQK
Sequence (P02675 45-152): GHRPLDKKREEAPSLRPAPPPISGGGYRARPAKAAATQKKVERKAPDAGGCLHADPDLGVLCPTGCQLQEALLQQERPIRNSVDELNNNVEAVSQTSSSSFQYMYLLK
Sequence (P02679 27-88): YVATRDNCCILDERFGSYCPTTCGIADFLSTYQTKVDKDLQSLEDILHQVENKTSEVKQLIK

Row | Structure (SMILES) | Kd [µM]
1 | CC(=O)N[C@H]1[C@@H](OC[C@H](NC(C)=O)C(=O)N[C@@H](Cc2c[nH]c3ccccc23)C(=O)N[C@@H](CCC(N)=O)C(=O)N2CCC[C@H]2C(=O)N[C@H]2CSSC[C@@H](C(=O)N[C@@H](Cc3c[nH]c4ccccc34)C(=O)N[C@@H](CC(=O)O)C(=O)N3CCC[C@H]3C(=O)NCC(=O)NCC(=O)NCC(=O)N[C@@H](CCCCNC(=O)c3ccc4c(c3)C(=O)OC43c4ccc(O)cc4Oc4cc(O)ccc43)C(N)=O)NC(=O)[C@H](Cc3ccccc3)NC(=O)[C@H]([C@@H](C)O)NC(=O)[C@H](Cc3c[nH]c4ccccc34)NC(=O)[C@H](CO)NC(=O)[C@H](CCC(=O)O)NC(=O)[C@H](Cc3c[nH]c4ccccc34)NC(=O)[C@@H]3CCCN3C2=O)O[C@H](CO)[C@H](O)[C@@H]1O [Seq027-CF5] (Ac-S(αGalNAc)WQPCPWESWTFCWDPGGGK(5FAM)-NH2; disulfide 5-13) | 0.5
2 | CC(=O)N[C@@H](CO)C(=O)NCC(=O)N[C@@H](CO)C(=O)NCC(=O)N[C@@H](CO)C(=O)NCC(=O)N[C@@H](CO)C(=O)NCC(=O)N[C@@H](Cc1c[nH]c2ccccc12)C(=O)N[C@@H](CCC(N)=O)C(=O)N1CCC[C@H]1C(=O)N[C@H]1CSSC[C@@H](C(=O)N[C@@H](Cc2c[nH]c3ccccc23)C(=O)N[C@@H](CC(=O)O)C(=O)N2CCC[C@H]2C(=O)NCC(=O)NCC(=O)NCC(=O)N[C@@H](CCCCNC(=O)c2ccc3c(c2)C(=O)OC32c3ccc(O)cc3Oc3cc(O)ccc32)C(N)=O)NC(=O)[C@H](Cc2ccccc2)NC(=O)[C@H]([C@@H](C)O)NC(=O)[C@H](Cc2c[nH]c3ccccc23)NC(=O)[C@H](CO)NC(=O)[C@H](CCC(=O)O)NC(=O)[C@H](C)NC(=O)[C@@H]2CCCN2C1=O [Seq040-CF5] (Ac-SGSGSGSGWQPCPAESWTFCWDPGGGK(5FAM)-NH2; disulfide 12-20) | 0.53
3 | CC(=O)NCC(=O)NCC(=O)N[C@@H](CCCNC(=N)N)C(=O)NCC(=O)N[C@@H](Cc1c[nH]c2ccccc12)C(=O)N[C@@H](CCC(N)=O)C(=O)N1CCC[C@H]1C(=O)N[C@H]1CSSC[C@@H](C(=O)N[C@@H](Cc2c[nH]c3ccccc23)C(=O)N[C@@H](CC(=O)O)C(=O)N2CCC[C@H]2C(=O)NCC(=O)NCC(=O)NCC(=O)N[C@@H](CCCCNC(=O)c2ccc3c(c2)C(=O)OC32c3ccc(O)cc3Oc3cc(O)ccc32)C(N)=O)NC(=O)[C@H](Cc2ccccc2)NC(=O)[C@H]([C@@H](C)O)NC(=O)[C@H](Cc2c[nH]c3ccccc23)NC(=O)[C@H](CO)NC(=O)[C@H](CCC(=O)O)NC(=O)[C@H](C)NC(=O)[C@@H]2CCCN2C1=O [Seq035-CF5] (Ac-GGRGWQPCPAESWTFCWDPGGGK(5FAM)-NH2; disulfide 8-16) | 0.52
4 | C[C@@H]1NC(=O)[C@@H]2CCCN2C(=O)[C@@H](NC(=O)[C@@H]2CCCN2C(=O)[C@H](CCC(N)=O)NC(=O)[C@H](Cc2c[nH]c3ccccc23)NC(=O)CN)CSSC[C@@H](C(=O)N[C@@H](Cc2c[nH]c3ccccc23)C(=O)N[C@@H](CC(=O)O)C(=O)N2CCC[C@H]2C(=O)NCC(=O)NCC(=O)NCC(=O)N[C@@H](CCCCNC(=O)c2ccc3c(c2)C(=O)OC32c3ccc(O)cc3Oc3cc(O)ccc32)C(N)=O)NC(=O)[C@H](Cc2ccccc2)NC(=O)[C@H]([C@@H](C)O)NC(=O)[C@H](Cc2c[nH]c3ccccc23)NC(=O)[C@H](CO)NC(=O)[C@H](CCC(=O)O)NC1=O [Seq038-CF5] (H-GWQPCPAESWTFCWDPGGGK(5FAM)-NH2; disulfide 5-13; N-terminus assumed) | 0.24
5 | C[C@@H](O)[C@@H]1NC(=O)[C@H](Cc2c[nH]c3ccccc23)NC(=O)[C@H](CO)NC(=O)[C@H](CCC(=O)O)NC(=O)[C@H](Cc2c[nH]c3ccccc23)NC(=O)[C@@H]2CCCN2C(=O)[C@@H](NC(=O)[C@@H]2CCCN2C(=O)[C@H](CCC(N)=O)NC(=O)[C@H](Cc2c[nH]c3ccccc23)NC(=O)[C@@H](N)CCCNC(=N)N)CSSC[C@@H](C(=O)N[C@@H](Cc2c[nH]c3ccccc23)C(=O)N[C@@H](CC(=O)O)C(=O)N2CCC[C@H]2C(=O)NCC(=O)NCC(=O)NCC(=O)N[C@@H](CCCCNC(=O)c2ccc3c(c2)C(=O)OC32c3ccc(O)cc3Oc3cc(O)ccc32)C(N)=O)NC(=O)[C@H](Cc2ccccc2)NC1=O [Seq023-CF5] (H-RWQPCPWESWTFCWDPGGGK(5FAM)-NH2; disulfide 5-13; N-terminus assumed) | 0.11
6 | CC(=O)N[C@@H](Cc1c[nH]c2ccccc12)C(=O)N[C@@H](CCC(N)=O)C(=O)N1CCC[C@H]1C(=O)N[C@H]1CSSC[C@@H](C(=O)N[C@@H](Cc2c[nH]c3ccccc23)C(=O)N[C@@H](CC(=O)O)C(=O)N2CCC[C@H]2C(=O)NCC(=O)NCC(=O)NCC(=O)N[C@@H](CCCCNC(=O)c2ccc3c(c2)C(=O)OC32c3ccc(O)cc3Oc3cc(O)ccc32)C(N)=O)NC(=O)[C@H](Cc2ccc(F)cc2)NC(=O)[C@H]([C@@H](C)O)NC(=O)[C@H](Cc2c[nH]c3ccccc23)NC(=O)[C@H](CO)NC(=O)[C@H](CCC(=O)O)NC(=O)[C@H](Cc2c[nH]c3ccccc23)NC(=O)[C@@H]2CCCN2C1=O [Seq019-CF5, Ac-WQPC*PWESWT-Ffe4-C*WDPGGGK(CF5)-NH2] (Ac-WQPCPWESWT[Phe(4-F)]CWDPGGGK(5FAM)-NH2; disulfide 4-12) | 1.02

The next lines start with the values.

Row | Kd [µM] | Structure (SMILES)
7 | 0.17 | CC(=O)N[C@@H](Cc1c[nH]c2ccccc12)C(=O)N[C@@H](CCC(N)=O)C(=O)N1CCC[C@H]1C(=O)N[C@H]1CSSC[C@@H](C(=O)N[C@@H](Cc2c[nH]c3ccccc23)C(=O)N[C@@H](CC(=O)O)C(=O)N2CCC[C@H]2C(=O)NCC(=O)NCC(=O)NCC(=O)N[C@@H](CCCCNC(=O)c2ccc3c(c2)C(=O)OC32c3ccc(O)cc3Oc3cc(O)ccc32)C(N)=O)NC(=O)[C@H](CC2CCCCC2)NC(=O)[C@H]([C@@H](C)O)NC(=O)[C@H](Cc2c[nH]c3ccccc23)NC(=O)[C@H](CO)NC(=O)[C@H](CCC(=O)O)NC(=O)[C@H](C)NC(=O)[C@@H]2CCCN2C1=O [Seq042-CF5, Ac-WQPC*PAESWT-Cha-C*WDPGGGK(CF5)-NH2] (Ac-WQPCPAESWT[Cha]CWDPGGGK(5FAM)-NH2; disulfide 4-12)
8 | 0.53 | CC(=O)N[C@@H](CCCNC(=N)N)C(=O)NCC(=O)N[C@@H](Cc1c[nH]c2ccccc12)C(=O)N[C@@H](CCC(N)=O)C(=O)N1CCC[C@H]1C(=O)N[C@H]1CSSC[C@@H](C(=O)N[C@@H](Cc2c[nH]c3ccccc23)C(=O)N[C@@H](CC(=O)O)C(=O)N2CCC[C@H]2C(=O)NCC(=O)NCC(=O)NCC(=O)N[C@@H](CCCCNC(=O)c2ccc3c(c2)C(=O)OC32c3ccc(O)cc3Oc3cc(O)ccc32)C(N)=O)NC(=O)[C@H](Cc2ccccc2)NC(=O)[C@H]([C@@H](C)O)NC(=O)[C@H](Cc2c[nH]c3ccccc23)NC(=O)[C@H](CO)NC(=O)[C@H](CCC(=O)O)NC(=O)[C@H](Cc2c[nH]c3ccccc23)NC(=O)[C@@H]2CCCN2C1=O [Seq052-CF5] (Ac-RGWQPCPWESWTFCWDPGGGK(5FAM)-NH2; disulfide 6-14)
9 | 0.1 | CC(=O)N[C@@H](CCCNC(=N)N)C(=O)NCC(=O)N[C@@H](Cc1c[nH]c2ccccc12)C(=O)N[C@@H](CCC(N)=O)C(=O)N1CCC[C@H]1C(=O)N[C@H]1CSSC[C@@H](C(=O)N[C@@H](Cc2c[nH]c3ccccc23)C(=O)N[C@@H](CC(=O)O)C(=O)N2CCC[C@H]2C(=O)NCC(=O)NCC(=O)NCC(=O)N[C@@H](CCCCNC(=O)c2ccc3c(c2)C(=O)OC32c3ccc(O)cc3Oc3cc(O)ccc32)C(N)=O)NC(=O)[C@H](CC2CCCCC2)NC(=O)[C@H]([C@@H](C)O)NC(=O)[C@H](Cc2c[nH]c3ccccc23)NC(=O)[C@H](CO)NC(=O)[C@H](CCC(=O)O)NC(=O)[C@H](C)NC(=O)[C@@H]2CCCN2C1=O [Seq053-CF5, Ac-RGWQPC*PAESWT-Cha-C*WDPGGGK(CF5)-NH2] (Ac-RGWQPCPAESWT[Cha]CWDPGGGK(5FAM)-NH2; disulfide 6-14)
10 | 0.08 | CC(=O)N[C@@H](CCCNC(=N)N)C(=O)N[C@@H](Cc1c[nH]c2ccccc12)C(=O)N[C@@H](CCC(N)=O)C(=O)N1CCC[C@H]1C(=O)N[C@H]1CSSC[C@@H](C(=O)N[C@@H](Cc2c[nH]c3ccccc23)C(=O)N[C@@H](CC(=O)O)C(=O)N2CCC[C@H]2C(=O)NCC(=O)NCC(=O)NCC(=O)N[C@@H](CCCCNC(=O)c2ccc3c(c2)C(=O)OC32c3ccc(O)cc3Oc3cc(O)ccc32)C(N)=O)NC(=O)[C@H](CC2CCCCC2)NC(=O)[C@H]([C@@H](C)O)NC(=O)[C@H](Cc2c[nH]c3ccccc23)NC(=O)[C@H](CO)NC(=O)[C@H](CCC(=O)O)NC(=O)[C@H](C)NC(=O)[C@@H]2CCCN2C1=O [Seq050-CF5, Ac-RWQPC*PAESWT-Cha-C*WDPGGGK(CF5)-NH2] (Ac-RWQPCPAESWT[Cha]CWDPGGGK(5FAM)-NH2; disulfide 5-13)
11 | 0.05 | C[C@@H]1NC(=O)[C@@H]2CCCN2C(=O)[C@@H](NC(=O)[C@@H]2CCCN2C(=O)[C@H](CCC(N)=O)NC(=O)[C@H](Cc2c[nH]c3ccccc23)NC(=O)CNC(=O)[C@@H](N)CCCNC(=N)N)CSSC[C@@H](C(=O)N[C@@H](Cc2c[nH]c3ccccc23)C(=O)N[C@@H](CC(=O)O)C(=O)N2CCC[C@H]2C(=O)NCC(=O)NCC(=O)NCC(=O)N[C@@H](CCCCNC(=O)c2ccc3c(c2)C(=O)OC32c3ccc(O)cc3Oc3cc(O)ccc32)C(N)=O)NC(=O)[C@H](CC2CCCCC2)NC(=O)[C@H]([C@@H](C)O)NC(=O)[C@H](Cc2c[nH]c3ccccc23)NC(=O)[C@H](CO)NC(=O)[C@H](CCC(=O)O)NC1=O [Seq054-CF5, RGWQPC*PAESWT-Cha-C*WDPGGGK(CF5)-NH2] (H-RGWQPCPAESWT[Cha]CWDPGGGK(5FAM)-NH2; disulfide 6-14)
12 | 0.08 | CC(=O)NCC(=O)N[C@@H](Cc1c[nH]c2ccccc12)C(=O)N[C@@H](CCC(N)=O)C(=O)N1CCC[C@H]1C(=O)N[C@H]1CSSC[C@@H](C(=O)N[C@@H](Cc2c[nH]c3ccccc23)C(=O)N[C@@H](CC(=O)O)C(=O)N2CCC[C@H]2C(=O)NCC(=O)NCC(=O)NCC(=O)N[C@@H](CCCCNC(=O)c2ccc3c(c2)C(=O)OC32c3ccc(O)cc3Oc3cc(O)ccc32)C(N)=O)NC(=O)[C@H](CC2CCCCC2)NC(=O)[C@H]([C@@H](C)O)NC(=O)[C@H](Cc2c[nH]c3ccccc23)NC(=O)[C@H](CO)NC(=O)[C@H](CCC(=O)O)NC(=O)[C@H](C)NC(=O)[C@@H]2CCCN2C1=O [Seq055-CF5, Ac-GWQPC*PAESWT-Cha-C*WDPGGGK(CF5)-NH2] (Ac-GWQPCPAESWT[Cha]CWDPGGGK(5FAM)-NH2; disulfide 5-13)
